Laboratory results from patent US6762178B2, “Acetylenic aryl sulfonamide and phosphinic acid amide hydroxamic acid TACE inhibitors” (Wyeth Holdings Corporation, priority 1999, dated 2004).

Legend:
[1] = biological target: TNF-α converting enzyme (TACE) (Homo sapiens, UniProt P78536); test: TACE inhibition (fluorescent peptidyl substrate); type: biochemical
Experimental: Using 96-well black microtiter plates, each well receives a solution composed of 10 μL TACE (final concentration 1 μg/mL), 70 μL Tris buffer, pH 7.4 containing 10% glycerol (final concentration 10 mM), and 10 μL of test compound solution in DMSO (final concentration 1 μM, DMSO concentration <1%) and incubated for 10 minutes at room temperature. The reaction is initiated by addition of a fluorescent peptidyl substrate (final concentration 100 μM) to each well and then shaking on a shaker for 5 sec.
The reaction is read (excitation 340 nm, emission 420 nm) for 10 min. and the increase in fluorescence over time is plotted as a linear line. The slope of the line is calculated and represents the reaction rate.
(§1) The mean (x±sem) of the control rate is calculated and compared for statistical significance (p<0.05) with drug-treated rates using Dunnett's multiple comparison test.

MMP-9 = MMP-9 (Homo sapiens, UniProt P14780); test: MMP-9 inhibition (thiopeptide or fluorescent peptide substrate); type: biochemical
Experimental: (§2) The enzyme activity is measured by the rate of the color increase. The thiopeptide substrate is made up fresh as a 20 mM stock in 100% DMSO and the DTNB is dissolved in 100% DMSO as a 100 mM stock and stored in the dark at room temperature. Both the substrate and DTNB are diluted together to 1 mM with substrate buffer (50 mM HEPES pH 7.5, 5 mM CaCl2) before use. The stock of enzyme is diluted with buffer (50 mM HEPES, pH 7.5, 5 mM CaCl2, 0.02% Brij) to the desired final concentration.
(§3) Alternatively, a fluorescent peptide substrate is used. In this test procedure, the peptide substrate contains a fluorescent group and a quenching group. Upon cleavage of the substrate by an MMP, the fluorescence that is generated is quantitated on the fluorescence plate reader. The assay is run in HCBC assay buffer (50 mM HEPES, pH 7.0, 5 mM Ca^+2, 0.02% Brij, 0.5% Cysteine), with human recombinant MMP-1, MMP-9, or MMP-13. The substrate is dissolved in methanol and stored frozen in 1 mM aliquots. For the assay, substrate and enzymes are diluted in HCBC buffer to the desired concentrations. […]
as §1, with “For either the thiopeptide or fluorescent peptide test procedures, the slope of the line is calculated and represents the reaction rate. […] The” for “The”

THP-1 cells = test: THP-1 soluble protein assay; type: cell-based, human; conditions: LPS-stimulated THP-1 cells
Excerpt: In addition, non-stimulated THP-1 cells shed both the p75/80 and the p55/60 receptors over time. The release of membrane bound TNF-α and possibly TNF-R p75/80 and TNF-R p55/60, but not IL-8, is mediated by an enzyme called TNF-a converting enzyme or TACE.
THP-1 cells (from ATCC) are a human monocytic cell line which were obtained from the peripheral blood of a person with acute monocytic leukemia. They can be grown in culture and differentiated into macrophage like cells by stimulation with mitogens.
Each vial of cells are cultured for about two weeks prior to being used for an assay and then are used for only 4 to 6 weeks to screen compounds.
Cell exposure to DMSO was limited to 0.1% final concentration. […] Compounds can be evaluated for their effect on basal (non-stimulated) shedding of the receptors by replacing the LPS with […] of THP-1 media. Plates are placed into an incubator set at 5% CO2 and at 37° C. […]
In addition, at the 24 hours timepoint, and the cells for each treatment group are collected by resuspension in 500 μl/well of THP-1 media and transferred into a FACS tube. […] The samples are run on a Becton Dickinson FaxCaliber FLOW cytometry machine and the amount of dye taken up by each cell is measured in the high red wavelength (FL3). […] The percent of live cells is calculated by the number of cells not stained with PI, divided by the total number of cells in the sample. […]

MMP-1 = biological target: T1, MMP-1 (Homo sapiens, UniProt P03956); test: MMP-1 inhibition (thiopeptide or fluorescent peptide substrate); type: biochemical
T1 sequence (P03956 100-469): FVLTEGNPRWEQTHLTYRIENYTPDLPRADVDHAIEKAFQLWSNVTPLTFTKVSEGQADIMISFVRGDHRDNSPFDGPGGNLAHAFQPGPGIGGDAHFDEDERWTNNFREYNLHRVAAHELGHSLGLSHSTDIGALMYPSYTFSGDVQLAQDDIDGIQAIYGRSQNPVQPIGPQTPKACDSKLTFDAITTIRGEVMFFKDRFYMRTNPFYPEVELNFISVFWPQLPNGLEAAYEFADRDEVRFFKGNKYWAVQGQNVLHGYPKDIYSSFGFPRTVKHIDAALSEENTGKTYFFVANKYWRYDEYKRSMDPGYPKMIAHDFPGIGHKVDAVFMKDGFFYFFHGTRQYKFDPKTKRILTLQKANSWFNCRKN
Experimental: as §2, §3
as §1, with “For either the thiopeptide or fluorescent peptide test procedures, the slope of the line is calculated and represents the reaction rate. […] The” for “The”

MMP-13 = MMP-13 (Homo sapiens, UniProt P45452); test: MMP-13 inhibition (thiopeptide or fluorescent peptide substrate); type: biochemical
Experimental: as §2, §3
as §1, with “For either the thiopeptide or fluorescent peptide test procedures, the slope of the line is calculated and represents the reaction rate. […] The” for “The”

Sequence of TNF-α converting enzyme (TACE) (P78536 215-824, species assumed): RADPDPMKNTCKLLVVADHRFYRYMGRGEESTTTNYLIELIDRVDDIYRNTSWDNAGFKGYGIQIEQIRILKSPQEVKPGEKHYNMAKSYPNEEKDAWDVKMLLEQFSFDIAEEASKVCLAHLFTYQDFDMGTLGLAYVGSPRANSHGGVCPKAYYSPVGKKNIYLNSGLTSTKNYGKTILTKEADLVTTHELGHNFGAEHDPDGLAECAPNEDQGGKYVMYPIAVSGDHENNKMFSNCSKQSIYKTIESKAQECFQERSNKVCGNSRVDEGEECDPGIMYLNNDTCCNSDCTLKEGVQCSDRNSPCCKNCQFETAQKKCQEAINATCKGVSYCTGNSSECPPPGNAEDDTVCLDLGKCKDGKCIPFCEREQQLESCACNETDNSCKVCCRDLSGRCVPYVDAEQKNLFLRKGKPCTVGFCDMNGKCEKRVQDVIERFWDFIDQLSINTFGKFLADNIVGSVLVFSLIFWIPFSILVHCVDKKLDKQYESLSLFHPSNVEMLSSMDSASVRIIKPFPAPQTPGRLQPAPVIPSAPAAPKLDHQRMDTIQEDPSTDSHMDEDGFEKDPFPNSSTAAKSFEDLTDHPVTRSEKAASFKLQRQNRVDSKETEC
Sequence of MMP-9 (P14780 94-707): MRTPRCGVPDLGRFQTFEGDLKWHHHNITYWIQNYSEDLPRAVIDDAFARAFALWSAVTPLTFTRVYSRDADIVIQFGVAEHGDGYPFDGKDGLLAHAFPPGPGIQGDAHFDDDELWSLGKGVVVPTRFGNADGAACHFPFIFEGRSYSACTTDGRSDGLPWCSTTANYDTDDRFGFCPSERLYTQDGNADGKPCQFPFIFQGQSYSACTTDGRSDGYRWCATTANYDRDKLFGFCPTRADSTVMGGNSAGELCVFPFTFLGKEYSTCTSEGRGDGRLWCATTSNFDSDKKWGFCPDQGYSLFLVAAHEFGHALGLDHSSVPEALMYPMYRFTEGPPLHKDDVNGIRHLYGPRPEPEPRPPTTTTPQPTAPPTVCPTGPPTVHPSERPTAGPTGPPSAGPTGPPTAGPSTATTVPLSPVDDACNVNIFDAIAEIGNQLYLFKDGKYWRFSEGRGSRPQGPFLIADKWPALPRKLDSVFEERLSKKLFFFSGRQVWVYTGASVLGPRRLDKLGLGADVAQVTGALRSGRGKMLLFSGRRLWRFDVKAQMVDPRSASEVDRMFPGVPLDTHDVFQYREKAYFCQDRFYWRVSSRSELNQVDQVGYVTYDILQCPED

5-Bromo-2-[(4-butoxy-benzenesulfonyl)-methyl-amino]-N-hydroxy-3-methyl-benzamide [Example 39]
IC50 [1]: 67 nM
IC50 (MMP-9): 21 nM
THP % Inhib. @ 3 μM (THP-1 cells): 0%
IC50 (MMP-1): 2490 nM
IC50 (MMP-13): 68 nM
